pEC50: −log10 of the molar value.
biological target: T1, human IL-17AA (Homo sapiens, UniProt Q16552); assay: IL-8 release assay in human epithelial keratinocytes adult (HEKa); format: cell-based; settings: HEKa cells, 3 ng/mL HEK-human IL-17AA + 10 ng/mL human TNFalpha; read-out: Rel EC50 IL-8 release assay
T1 construct: host or cells: HEK (human embryonic kidney) cells
T1 sequence (Q16552 24-155): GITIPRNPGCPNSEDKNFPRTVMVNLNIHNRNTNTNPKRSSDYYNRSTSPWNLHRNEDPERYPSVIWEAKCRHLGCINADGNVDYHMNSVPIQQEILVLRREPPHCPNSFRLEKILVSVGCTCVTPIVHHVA
Procedure, shortened: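 IL-8 release, quantified by HTRF and normalized to controls, reports IL-17 signaling in HEKa cells treated with compound plus final 3 ng/mL IL-17AA (HEK-derived) and 10 ng/mL TNF-alpha for 68-72 h; TNF-alpha-only wells set 100% inhibition. Four-parameter logistic fits (r^2>0.9) give relative IC50 and Emax; PrestoBlue flags cytotoxicity.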

Q: With Cc1ncn(C)c1-c1ccc(NC(=O)[C@@H](NC(=O)c2ccnn2C)C2CCCCCC2)cc1 [Example 336, N-[(1S)-1-cycloheptyl-2-[4-(3,5-dimethylimidazol-4-yl)anilino]-2-oxo-ethyl]-2-methyl-pyrazole-3-carboxamide] as the molecule, how does the pEC50 read?
A: Its pEC50 is 6.00 to 7.00.

Q: Cc1n[nH]c(C)c1-c1ccc(NC(=O)C(NC(=O)c2ccnn2C(C)C)C(C2CC(F)(F)C2)C2CC(F)(F)C2)cc1 (racemic) [Example 294, N-[1-[bis(3,3-difluorocyclobutyl)methyl]-2-[4-(3,5-dimethyl-1H-pyrazol-4-yl)anilino]-2-oxo-ethyl]-2-isopropyl-pyrazole-3-carboxamide] was tested. Which pEC50 did it give?
A: The pEC50 was 6.00 to 7.00.

Q: Cn1cncc1-c1ccc(NC(=O)[C@@H](NC(=O)OC(C)(C)C)C2Cc3ccccc3C2)cc1 [Example 99, tert-butyl N-[(1S)-1-indan-2-yl-2-[4-(3-methylimidazol-4-yl)anilino]-2-oxo-ethyl]carbamate] was tested. Which pEC50 did it give?
A: Its pEC50 is < 6.00.

Q: With Cc1n[nH]c(C)c1-c1ccc(NC(=O)[C@@H](NC(=O)N2CCCC2CCO)C2CCCCC2)cc1 (single isomer, unassigned) [Example 466] as the molecule, how does the pEC50 read?
A: The pEC50 was < 6.00.

Q: How did the pEC50 turn out when Cc1n[nH]c(C)c1-c1ccc(NC(=O)[C@@H](NC(=O)c2ccnn2C(C)C)[C@@H]2CC3(CC3)CCC2(F)F)cc1 [Example 181, N-[(1S)-1-[(7S)-6,6-difluorospiro[2.5]octan-7-yl]-2-[4-(3,5-dimethyl-1H-pyrazol-4-yl)anilino]-2-oxo-ethyl]-2-isopropyl-pyrazole-3-carboxamide] was run?
A: Its pEC50 is > 7.00.

Q: Cc1n[nH]c(C)c1-c1ccc(NC(=O)[C@@H](NC(=O)c2ccnn2CCCO)[C@H]2CC[C@H](C)CC2)cc1 [Example 208, N-[(1S)-2-[4-(3,5-dimethyl-1H-pyrazol-4-yl)anilino]-1-(trans-4-methylcyclohexyl)-2-oxo-ethyl]-2-(3-hydroxypropyl)pyrazole-3-carboxamide] was tested. Which pEC50 did it give?
A: Its pEC50 is > 7.00.

Q: With Cc1n[nH]c(C)c1-c1ccc(NC(=O)[C@@H](NC(=O)N(C)CCCCO)C2CCCCC2)cc1 [Example 476, (2S)-2-cyclohexyl-N-[4-(3,5-dimethyl-1H-pyrazol-4-yl)phenyl]-2-[[4-hydroxybutyl(methyl)carbamoyl]amino]acetamide] as the molecule, how does the pEC50 read?
A: Its pEC50 is 6.00 to 7.00.

Q: How did the pEC50 turn out when CCN(CC)C(=O)N[C@H](C(=O)Nc1ccc(-c2c(C)n[nH]c2C)cc1)C1CCCCC1 [Example 462, (2S)-2-cyclohexyl-2-(diethylcarbamoylamino)-N-[4-(3,5-dimethyl-1H-pyrazol-4-yl)phenyl]acetamide] was run?
A: Its pEC50 is < 6.00.

Q: How did the pEC50 turn out when Cc1n[nH]c(C)c1-c1ccc(NC(=O)[C@@H](NC(=O)c2ccnn2C)C(c2ccccc2)c2ccccc2)cc1O [Example 411, N-[(1S)-1-benzhydryl-2-[4-(3,5-dimethyl-1H-pyrazol-4-yl)-3-hydroxy-anilino]-2-oxo-ethyl]-2-methyl-pyrazole-3-carboxamide] was run?
A: Its pEC50 is 6.00 to 7.00.

Q: With Cc1n[nH]c(C)c1-c1ccc(NC(=O)[C@@H](NC(=O)c2ccnn2C(CF)CF)C(C2CC2)C2CC2)cc1 [Example 217] as the molecule, how does the pEC50 read?
A: The pEC50 was > 7.00.

Q: How did the pEC50 turn out when Cc1ncc(CC(=O)N[C@H](C(=O)Nc2ccc(-c3c(C)n[nH]c3C)cc2)C2CCCCC2)s1 [Example 52, (2S)-2-cyclohexyl-N-[4-(3,5-dimethyl-1H-pyrazol-4-yl)phenyl]-2-[[2-(2-methylthiazol-5-yl)acetyl]amino]acetamide] was run?
A: The pEC50 was < 6.00.

Q: With Cc1n[nH]c(C)c1-c1ccc(NC(=O)[C@@H](NC(=O)c2ccnn2C)C(C2CCC2)C2CCC2)cc1 [Example 13, N-[(1S)-1-[di(cyclobutyl)methyl]-2-[4-(3,5-dimethyl-1H-pyrazol-4-yl)anilino]-2-oxo-ethyl]-2-methyl-pyrazole-3-carboxamide] as the molecule, how does the pEC50 read?
A: The pEC50 was > 7.00.

Q: With Cc1n[nH]c(C)c1-c1ccc(NC(=O)[C@@H](NC(=O)c2cnnn2C(C)C)C(C2CC2)C2CC2)cc1 [Example 292, N-[(1S)-1-(dicyclopropylmethyl)-2-[4-(3,5-dimethyl-1H-pyrazol-4-yl)anilino]-2-oxo-ethyl]-3-isopropyl-triazole-4-carboxamide] as the molecule, how does the pEC50 read?
A: Its pEC50 is > 7.00.

Q: With Cc1cnn(C)c1-c1ccc(NC(=O)[C@@H](NC(=O)c2ccnn2C(C)C)C(C2CC2)C2CC2)cc1O [Example 365, N-[(1S)-1-(dicyclopropylmethyl)-2-[4-(2,4-dimethylpyrazol-3-yl)-3-hydroxy-anilino]-2-oxo-ethyl]-2-isopropyl-pyrazole-3-carboxamide] as the molecule, how does the pEC50 read?
A: Its pEC50 is > 7.00.

Q: CCCn1nccc1C(=O)N[C@H](C(=O)Nc1ccc(-c2c(CC)n[nH]c2CC)cc1)C(C1CC1)C1CC1 [Example 397, N-[(1S)-1-(dicyclopropylmethyl)-2-[4-(3,5-diethyl-1H-pyrazol-4-yl)anilino]-2-oxo-ethyl]-2-propyl-pyrazole-3-carboxamide] was tested. Which pEC50 did it give?
A: Its pEC50 is > 7.00.

Q: With Cc1n[nH]c(C)c1-c1ccc(NC(=O)C(NC(=O)c2ccnn2C)C(c2ccccc2)C2CC2)cc1 (single isomer, unassigned) [Example 302, N-[1-[cyclopropyl(phenyl)methyl]-2-[4-(3,5-dimethyl-1H-pyrazol-4-yl)anilino]-2-oxo-ethyl]-2-methyl-pyrazole-3-carboxamide] as the molecule, how does the pEC50 read?
A: Its pEC50 is < 6.00.

Q: Cc1n[nH]c(CO)c1-c1ccc(NC(=O)[C@@H](NC(=O)c2ccnn2C)C2CCCCCC2)cc1 [Example 446, N-[(1S)-1-cycloheptyl-2-[4-[5-(hydroxymethyl)-3-methyl-1H-pyrazol-4-yl]anilino]-2-oxo-ethyl]-2-methyl-pyrazole-3-carboxamide] was tested. Which pEC50 did it give?
A: Its pEC50 is > 7.00.

Q: With CCn1nccc1C(=O)N[C@H](C(=O)Nc1ccc(-n2c(C)c[nH]c2=O)cc1)C(C1CC1)C1CC1 [Example 370, N-[(1S)-1-(dicyclopropylmethyl)-2-[4-(4-methyl-2-oxo-1H-imidazol-3-yl)anilino]-2-oxo-ethyl]-2-ethyl-pyrazole-3-carboxamide] as the molecule, how does the pEC50 read?
A: Its pEC50 is < 6.00.

Q: How did the pEC50 turn out when Cc1n[nH]c(C)c1-c1ccc(NC(=O)[C@@H](NC(=O)N2CCCCC2CCO)C2CCCCC2)cc1 (single isomer, unassigned) [Example 471] was run?
A: Its pEC50 is < 6.00.

Q: With Cc1n[nH]c(C)c1-c1ccc(NC(=O)[C@@H](NC(=O)c2ccnn2C2CCC2)C2CCCCC2)cc1 [Example 108, 2-cyclobutyl-N-[(1S)-1-cyclohexyl-2-[4-(3,5-dimethyl-1H-pyrazol-4-yl)anilino]-2-oxo-ethyl]pyrazole-3-carboxamide] as the molecule, how does the pEC50 read?
A: Its pEC50 is > 7.00.

Q: How did the pEC50 turn out when Cn1cncc1-c1ccc(NC(=O)[C@H](Cc2ccccc2)NC(=O)OC(C)(C)C)cc1 [Example 95, tert-butyl N-[(1S)-1-benzyl-2-[4-(3-methylimidazol-4-yl)anilino]-2-oxo-ethyl]carbamate] was run?
A: Its pEC50 is < 6.00.

Q: How did the pEC50 turn out when Cc1n[nH]c(C)c1-c1ccc(NC(=O)[C@@H](NC(=O)N2CCOCC2)C2CCCCC2)cc1 [Example 478, N-[(1S)-1-cyclohexyl-2-[4-(3,5-dimethyl-1H-pyrazol-4-yl)anilino]-2-oxo-ethyl]morpholine-4-carboxamide] was run?
A: Its pEC50 is < 6.00.

Q: How did the pEC50 turn out when Cn1cncc1-c1ccc(NC(=O)C(NC(=O)c2ccnn2C)C(c2cccc(F)c2)c2cccc(F)c2)cc1 (single isomer, unassigned) [Example 374B, N-(1,1-Bis(3-Fluorophenyl)-3-((4-(1-methyl-1H-imidazol-5-yl)phenyl)amino)-3-oxopropan-2-yl)-1-methyl-1H-pyrazole-5-carboxamide] was run?
A: The pEC50 was < 6.00.

Q: How did the pEC50 turn out when Cc1n[nH]c(C)c1-c1ccc(NC(=O)[C@@H](NC(=O)c2ccnn2C)C2CCC(C)(C)CC2)cc1 [Example 238, N-[(1S)-1-(4,4-dimethylcyclohexyl)-2-[4-(3,5-dimethyl-1H-pyrazol-4-yl)anilino]-2-oxo-ethyl]-2-methyl-pyrazole-3-carboxamide] was run?
A: Its pEC50 is 6.00 to 7.00.

Q: With Cc1n[nH]c(C)c1-c1ccc(NC(=O)[C@@H](NC(=O)c2ccnn2C)C(C)CC2CC2)cc1 (single isomer, unassigned) [Example 159] as the molecule, how does the pEC50 read?
A: The pEC50 was 6.00 to 7.00.

Q: How did the pEC50 turn out when Cc1n[nH]c(C)c1-c1ccc(NC(=O)[C@@H](NC(=O)N2CCCC2CCO)C2CCCCC2)cc1 (single isomer, unassigned) [Example 467] was run?
A: Its pEC50 is < 6.00.

Q: How did the pEC50 turn out when CC[C@H](C)[C@H](NC(=O)c1ccnn1CC)C(=O)Nc1ccc(-c2c(C)n[nH]c2C)cc1 [Example 109, N-[(1S,25)-1-[[4-(3,5-dimethyl-1H-pyrazol-4-yl)phenyl]carbamoyl]-2-methyl-butyl]-2-ethyl-pyrazole-3-carboxamide] was run?
A: Its pEC50 is 6.00 to 7.00.

Q: With Cc1[nH]nc(C2CC2)c1-c1ccc(NC(=O)[C@@H](NC(=O)c2ccnn2[C@@H](C)CO)C(C2CC2)C2CC2)cc1 [Example 389, N-[(1S)-2,2-dicyclopropyl-1-[[4-(3-cyclopropyl-5-methyl-1H-pyrazol-4-yl)phenyl]carbamoyl]ethyl]-2-[(1S)-2-hydroxy-1-methyl-ethyl]pyrazole-3-carboxamide] as the molecule, how does the pEC50 read?
A: The pEC50 was > 7.00.

Q: How did the pEC50 turn out when Cc1n[nH]c(C)c1-c1ccc(NC(=O)[C@@H](NC(=O)c2ccnn2C)C2CC23CCC3)cc1 (single isomer, unassigned) [Example 223] was run?
A: Its pEC50 is < 6.00.

Q: With Cc1n[nH]c(C)c1-c1ccc(NC(=O)C(NC(=O)c2ccnn2C)[C@H]2CCCc3c(F)cccc32)cc1 (single isomer, unassigned) [Example 256] as the molecule, how does the pEC50 read?
A: Its pEC50 is > 7.00.

Q: How did the pEC50 turn out when Cc1n[nH]c(C)c1-c1ccc(NC(=O)C(NC(=O)c2ccnn2C)C2CCC3(CC2)CC3)cc1 (racemic) [Example 21, N-[2-[4-(3,5-dimethyl-1H-pyrazol-4-yl)anilino]-2-oxo-1-spiro[2.5]octan-6-yl-ethyl]-2-methyl-pyrazole-3-carboxamide] was run?
A: Its pEC50 is 6.00 to 7.00.

Q: Cc1n[nH]c(C)c1-c1ccc(NC(=O)[C@@H](NC(=O)c2cnnn2C(C)C)C(C2CCC2)C2CCC2)cc1 [Example 273, N-[(1S)-1-[di(cyclobutyl)methyl]-2-[4-(3,5-dimethyl-1H-pyrazol-4-yl)anilino]-2-oxo-ethyl]-3-isopropyl-triazole-4-carboxamide] was tested. Which pEC50 did it give?
A: The pEC50 was > 7.00.
